Data from patent publication US20080269251A1, “Substituted Pyrazinone Derivatives as Alpha2C-Adrenoreceptor Antagonists” (priority 2005, published 2008).

target: T1, 5HT-transporter (Homo sapiens, UniProt P31645); test: Binding experiment for the 5HT-transporter ([3H]paroxetine, human platelet membranes); details: [3H]paroxetine 0.5 nM, 60 min at 25° C., read-out: h-5HTT pIC50 (converted)
T1 construct: Human platelet membranes (Oceanix Biosciences Corporation, Hanover, Md., USA) were thawed; tissue Oceanix Biosciences Corporation, Hanover, Md., USA; host or cells: human platelet membranes
T1 sequence (P31645 whole entry): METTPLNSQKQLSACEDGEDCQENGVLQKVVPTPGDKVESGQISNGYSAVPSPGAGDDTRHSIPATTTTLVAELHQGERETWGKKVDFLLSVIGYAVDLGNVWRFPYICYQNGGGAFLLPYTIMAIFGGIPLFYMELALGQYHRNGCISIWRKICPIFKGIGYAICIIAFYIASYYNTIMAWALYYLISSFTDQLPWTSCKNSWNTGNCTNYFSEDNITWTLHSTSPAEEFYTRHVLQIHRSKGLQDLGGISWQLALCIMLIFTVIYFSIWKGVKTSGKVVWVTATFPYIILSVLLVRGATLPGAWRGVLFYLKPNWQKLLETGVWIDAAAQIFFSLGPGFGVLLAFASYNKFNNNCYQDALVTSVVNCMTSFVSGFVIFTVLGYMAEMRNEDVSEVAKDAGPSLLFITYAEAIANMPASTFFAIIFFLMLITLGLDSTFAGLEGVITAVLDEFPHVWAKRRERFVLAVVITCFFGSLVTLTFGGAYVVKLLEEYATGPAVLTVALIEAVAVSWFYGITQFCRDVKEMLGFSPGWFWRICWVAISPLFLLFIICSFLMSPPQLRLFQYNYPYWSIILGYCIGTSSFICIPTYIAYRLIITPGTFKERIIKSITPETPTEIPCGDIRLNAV
Method: (§1) The interaction of the compounds of Formula (I) with α2C-adrenoceptor receptors was assessed in in vitro radioligand binding experiments. In general, a low concentration of a radioligand with a high binding affinity for a particular receptor or transporter is incubated with a sample of a tissue preparation enriched in a particular receptor or transporter or with a preparation of cells expressing cloned human receptors in a buffered medium. During the incubation, the radioligand binds to the receptor or transporter. When equilibrium of binding is reached, the receptor bound radioactivity is separated from the non-bound radioactivity, and the receptor- or transporter-bound activity is counted. The interaction of the test compounds with the receptor is assessed in competition binding experiments. Various concentrations of the test compound are added to the incubation mixture containing the receptor- or transporter preparation and the radioligand. The test compound in proportion to its binding affinity and its concentration inhibits binding of the radioligand. The radioligand used for […] receptor binding was [^3H]-raulwolscine.
Human platelet membranes (Oceanix Biosciences Corporation, Hanover, Md., USA) were thawed, diluted in buffer (Tris-HCl 50 mM, 120 mM NaCl and 5 mM KCl) and quickly (max 3 s) homogenised with an Ultraturrax homogenizer. […] Incubation was stopped by rapid filtration of the incubation mixture over GF/B filters, pre-wetted with 0.1% polyethyleneamine, using a Filtermate196 harvester (Packard, Meriden, Conn.). Filters were rinsed extensively with ice-cold buffer and radioactivity on the filters was counted in a Topcount liquid scintillation counter (Packard, Meriden, Conn.). Data were expressed as cpm. Imipramine (at 1 μM final concentration) was used to determine the non-specific binding.
(§2) Data from assays in the presence of compound were calculated as a percentage of total binding measured in the absence of test compound. Inhibition curves, plotting percent of total binding versus the log value of the concentration of the test compound, were automatically generated, and sigmoidal inhibition curves were fitted using non-linear regression. The pIC50 values of test compounds were derived from individual curves.

Row | SMILES | IC50 [µM]
1 | COc1ccc(Cn2c(-c3ccc(CN4CCC(O)CC4)cc3)c(Cl)nc(NC3CCN(Cc4ccc5ccccc5c4)CC3)c2=O)cc1 [8-11] | 0.0316
2 | O=C1c2ccccc2C(=O)N1CCCn1ccnc(N2CCN(Cc3ccc4ccccc4c3)CC2)c1=O [9-01] | 0.0316
3 | COC(CCn1ccnc(NC2CCN(Cc3ccc4ccccc4c3)CC2)c1=O)OC [4-03] | 0.316
4 | COCCNCc1ccc(-n2ccnc(NC3CCN(Cc4ccc5ccccc5c4)CC3)c2=O)cc1 [1-22] | 0.0158
5 | CN1CCN(c2ccc(-n3ccnc(NC4CCN(Cc5ccc6ccccc6c5)CC4)c3=O)cc2)CC1 [2-03] | 0.0126
6 | O=C(Nc1cccc(-n2ccnc(NC3CCN(Cc4ccc5ccccc5c4)CC3)c2=O)c1)c1ccc(F)cc1 [1-75] | 0.00398
7 | O=c1[nH]c(-c2cccc(CN3CCOCC3)c2)c(Cl)nc1NC1CCN(Cc2ccc3ccccc3c2)CC1 [7-08] | 1.26
8 | CN(C)C(=O)CCC(=O)NCc1ccc(-n2ccnc(NC3CCN(Cc4ccc5ccccc5c4)CC3)c2=O)cc1 [1-59] | 0.0316
9 | CC(=O)NCCNCc1ccc(-n2ccnc(NC3CCN(Cc4ccc5ccccc5c4)CC3)c2=O)cc1 [1-61] | 0.01
10 | Cc1cc(CNC(=O)c2ccc(-n3ccnc(NC4CCN(Cc5ccc6ccccc6c5)CC4)c3=O)cc2)no1 [1-86] | 0.0251
11 | O=C(NCCCn1ccnc(NC2CCN(Cc3ccc4ccccc4c3)CC2)c1=O)Nc1ccccc1 [1-53] | 0.00794
12 | COCCCNC(=O)NCc1ccc(-n2ccnc(NC3CCN(Cc4ccc5ccccc5c4)CC3)c2=O)cc1 [1-46] | 0.0631
13 | CCCC(=O)NCc1ccc(-n2ccnc(NC3CCN(Cc4ccc5ccccc5c4)CC3)c2=O)cc1 [1-24] | 0.00631
14 | Cc1cc(CNCc2ccc(-n3ccnc(NC4CCN(Cc5ccc6ccccc6c5)CC4)c3=O)cc2F)no1 [1-87] | 0.0126
15 | O=c1c(NC2CCN(Cc3ccc4ccccc4c3)CC2)nccn1CCN1CCOCC1 [2-09] | 0.501
16 | O=c1c(N2CCN(Cc3cccc4ccccc34)CC2)nccn1Cc1ccccc1 [9-26] | 2.51
17 | O=C(CCc1ccccc1)NCc1ccc(-n2ccnc(NC3CCN(Cc4ccc5ccccc5c4)CC3)c2=O)cc1 [1-43] | 0.00631

target: T2, human adrenergic-α2A receptor (Homo sapiens, UniProt P08913); test: Radioligand binding experiment for hα2A-adrenergic receptor ([3H]raulwolscine); details: [3H]raulwolscine 1 nM, 60 minutes at 25° C.; read-out: h-α2A pIC50 (converted)
T2 construct: expressed in transfected cells; host or cells: CHO cells, stably transfected; membrane preparation
T2 sequence (P08913 1-465): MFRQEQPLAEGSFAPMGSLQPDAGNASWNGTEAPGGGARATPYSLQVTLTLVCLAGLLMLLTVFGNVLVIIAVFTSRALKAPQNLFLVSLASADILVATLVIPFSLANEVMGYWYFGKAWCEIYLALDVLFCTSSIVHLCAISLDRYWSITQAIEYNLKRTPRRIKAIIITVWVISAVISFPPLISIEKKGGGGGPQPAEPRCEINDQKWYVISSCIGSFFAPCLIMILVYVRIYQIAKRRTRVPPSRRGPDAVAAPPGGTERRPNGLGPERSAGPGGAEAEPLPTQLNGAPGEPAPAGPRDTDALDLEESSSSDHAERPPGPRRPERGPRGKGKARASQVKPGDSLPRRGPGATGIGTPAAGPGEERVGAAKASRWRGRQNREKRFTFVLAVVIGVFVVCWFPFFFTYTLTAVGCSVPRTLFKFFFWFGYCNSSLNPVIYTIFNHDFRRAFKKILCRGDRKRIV
Method: as §1
(§3) CHO cells, stabile transfected with human adrenergic-α2A, -α2B or α2C receptor cDNA, were cultured in Dulbecco's Modified Eagle's Medium (DMEM)/Nutrient mixture Ham's F12 (ratio 1:1)(Gibco, Gent-Belgium) supplemented with 10% heat inactivated fetal calf serum (Life Technologies, Merelbeke-Belgium) and antibiotics (100 IU/ml penicillin G, 100 μg/ml streptomycin sulphate, 110 μg/ml pyruvic acid and 100 μg/ml L-glutamine). One day before collection, cells were induced with 5 mM sodiumbutyrate. Upon 80-90% of confluence, cells were scraped in phosphate buffered saline without Ca^2+ and Mg^2+ and collected by centrifugation at 1500×g for 10 minutes. The cells were homogenised in Tris-HCl 50 mM using an Ultraturrax homogenizer and centrifuged for 10 minutes at 23,500×g. The pellet was washed once by resuspension and rehomogenization and the final pellet was resuspended in Tris-HCl, divided in 1 ml aliquots and stored at −70° C.
(§4) Membranes were thawed and re-homogenized in incubation buffer (glycylglycine 25 mM, pH 8.0). In a total volume of 500 μl, 2-10 μg protein was incubated with [^3H]raulwolscine (NET-722) (New England Nuclear, USA) (1 nM final concentration) with or without competitor for 60 minutes at 25° C. followed by rapid filtration over GF/B filter using a Filtermate196 harvester (Packard, Meriden, Conn.). Filters were rinsed extensively with ice-cold rinsing buffer (Tris-HCl 50 mM pH 7.4). Filter-bound radioactivity was determined by scintillation counting in a Topcount (Packard, Meriden, Conn.) and results were expressed as counts per minute (cpm). Non-specific binding was determined in the presence of 1 μM oxymetazoline for hα2A- and hα2B receptors and 1 μM spiroxatrine for hα2C receptors.
as §2

Row | SMILES | IC50 [µM]
18 | COc1ccc(Cn2c(-c3ccc(CN4CCC(O)CC4)cc3)c(Cl)nc(NC3CCN(Cc4ccc5ccccc5c4)CC3)c2=O)cc1 [8-11] | 0.126
19 | O=C1c2ccccc2C(=O)N1CCCn1ccnc(N2CCN(Cc3ccc4ccccc4c3)CC2)c1=O [9-01] | 0.631
20 | COC(CCn1ccnc(NC2CCN(Cc3ccc4ccccc4c3)CC2)c1=O)OC [4-03] | 1
21 | COCCNCc1ccc(-n2ccnc(NC3CCN(Cc4ccc5ccccc5c4)CC3)c2=O)cc1 [1-22] | 0.2
22 | CN1CCN(c2ccc(-n3ccnc(NC4CCN(Cc5ccc6ccccc6c5)CC4)c3=O)cc2)CC1 [2-03] | 0.1
23 | O=C(Nc1cccc(-n2ccnc(NC3CCN(Cc4ccc5ccccc5c4)CC3)c2=O)c1)c1ccc(F)cc1 [1-75] | 0.1
24 | O=c1[nH]c(-c2cccc(CN3CCOCC3)c2)c(Cl)nc1NC1CCN(Cc2ccc3ccccc3c2)CC1 [7-08] | 1.58
25 | CN(C)C(=O)CCC(=O)NCc1ccc(-n2ccnc(NC3CCN(Cc4ccc5ccccc5c4)CC3)c2=O)cc1 [1-59] | 0.316
26 | CC(=O)NCCNCc1ccc(-n2ccnc(NC3CCN(Cc4ccc5ccccc5c4)CC3)c2=O)cc1 [1-61] | 0.2
27 | Cc1cc(CNC(=O)c2ccc(-n3ccnc(NC4CCN(Cc5ccc6ccccc6c5)CC4)c3=O)cc2)no1 [1-86] | 0.251
28 | O=C(NCCCn1ccnc(NC2CCN(Cc3ccc4ccccc4c3)CC2)c1=O)Nc1ccccc1 [1-53] | 0.631
29 | COCCCNC(=O)NCc1ccc(-n2ccnc(NC3CCN(Cc4ccc5ccccc5c4)CC3)c2=O)cc1 [1-46] | 0.501
30 | CCCC(=O)NCc1ccc(-n2ccnc(NC3CCN(Cc4ccc5ccccc5c4)CC3)c2=O)cc1 [1-24] | 0.316
31 | Cc1cc(CNCc2ccc(-n3ccnc(NC4CCN(Cc5ccc6ccccc6c5)CC4)c3=O)cc2F)no1 [1-87] | 0.251
32 | O=c1c(NC2CCN(Cc3ccc4ccccc4c3)CC2)nccn1CCN1CCOCC1 [2-09] | 1
33 | O=c1c(N2CCN(Cc3cccc4ccccc34)CC2)nccn1Cc1ccccc1 [9-26] | 0.501
34 | O=C(CCc1ccccc1)NCc1ccc(-n2ccnc(NC3CCN(Cc4ccc5ccccc5c4)CC3)c2=O)cc1 [1-43] | 0.251

target: T3, human adrenergic-α2C receptor (Homo sapiens, UniProt P18825); test: Radioligand binding experiment for hα2C-adrenoceptor ([3H]raulwolscine); details: [3H]raulwolscine 1 nM, 60 minutes at 25° C.; read-out: h-α2C pIC50 (converted)
T3 construct: expressed in transfected cells; host or cells: CHO cells, stably transfected; membrane preparation
T3 sequence (P18825 1-462): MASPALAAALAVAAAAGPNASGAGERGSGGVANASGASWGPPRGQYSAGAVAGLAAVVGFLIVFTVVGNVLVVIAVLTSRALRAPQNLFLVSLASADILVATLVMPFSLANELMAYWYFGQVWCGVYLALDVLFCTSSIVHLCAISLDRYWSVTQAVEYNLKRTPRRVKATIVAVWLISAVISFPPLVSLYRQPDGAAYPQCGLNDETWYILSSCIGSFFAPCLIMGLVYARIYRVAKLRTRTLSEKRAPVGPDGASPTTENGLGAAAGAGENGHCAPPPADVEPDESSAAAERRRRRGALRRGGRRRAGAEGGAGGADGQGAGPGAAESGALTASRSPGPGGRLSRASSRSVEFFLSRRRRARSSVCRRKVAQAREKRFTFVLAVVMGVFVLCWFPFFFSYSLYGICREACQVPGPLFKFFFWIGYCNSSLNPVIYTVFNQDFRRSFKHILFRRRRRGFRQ
Method: as §1, §3, §4, §2

Row | SMILES | IC50 [µM]
35 | COc1ccc(Cn2c(-c3ccc(CN4CCC(O)CC4)cc3)c(Cl)nc(NC3CCN(Cc4ccc5ccccc5c4)CC3)c2=O)cc1 [8-11] | 0.0398
36 | O=C1c2ccccc2C(=O)N1CCCn1ccnc(N2CCN(Cc3ccc4ccccc4c3)CC2)c1=O [9-01] | 0.0794
37 | COC(CCn1ccnc(NC2CCN(Cc3ccc4ccccc4c3)CC2)c1=O)OC [4-03] | 0.1
38 | COCCNCc1ccc(-n2ccnc(NC3CCN(Cc4ccc5ccccc5c4)CC3)c2=O)cc1 [1-22] | 0.0158
39 | CN1CCN(c2ccc(-n3ccnc(NC4CCN(Cc5ccc6ccccc6c5)CC4)c3=O)cc2)CC1 [2-03] | 0.0251
40 | O=C(Nc1cccc(-n2ccnc(NC3CCN(Cc4ccc5ccccc5c4)CC3)c2=O)c1)c1ccc(F)cc1 [1-75] | 0.0631
41 | O=c1[nH]c(-c2cccc(CN3CCOCC3)c2)c(Cl)nc1NC1CCN(Cc2ccc3ccccc3c2)CC1 [7-08] | 0.501
42 | CN(C)C(=O)CCC(=O)NCc1ccc(-n2ccnc(NC3CCN(Cc4ccc5ccccc5c4)CC3)c2=O)cc1 [1-59] | 0.0398
43 | CC(=O)NCCNCc1ccc(-n2ccnc(NC3CCN(Cc4ccc5ccccc5c4)CC3)c2=O)cc1 [1-61] | 0.0126
44 | Cc1cc(CNC(=O)c2ccc(-n3ccnc(NC4CCN(Cc5ccc6ccccc6c5)CC4)c3=O)cc2)no1 [1-86] | 0.0251
45 | O=C(NCCCn1ccnc(NC2CCN(Cc3ccc4ccccc4c3)CC2)c1=O)Nc1ccccc1 [1-53] | 0.02
46 | COCCCNC(=O)NCc1ccc(-n2ccnc(NC3CCN(Cc4ccc5ccccc5c4)CC3)c2=O)cc1 [1-46] | 0.0398
47 | CCCC(=O)NCc1ccc(-n2ccnc(NC3CCN(Cc4ccc5ccccc5c4)CC3)c2=O)cc1 [1-24] | 0.0251
48 | Cc1cc(CNCc2ccc(-n3ccnc(NC4CCN(Cc5ccc6ccccc6c5)CC4)c3=O)cc2F)no1 [1-87] | 0.0126
49 | O=c1c(NC2CCN(Cc3ccc4ccccc4c3)CC2)nccn1CCN1CCOCC1 [2-09] | 0.158
50 | O=c1c(N2CCN(Cc3cccc4ccccc34)CC2)nccn1Cc1ccccc1 [9-26] | 1
51 | O=C(CCc1ccccc1)NCc1ccc(-n2ccnc(NC3CCN(Cc4ccc5ccccc5c4)CC3)c2=O)cc1 [1-43] | 0.0398
